Measurements reported in US20260132165A1, “MODIFIED NUCLEOSIDE ANALOGUE AND USE THEREOF, AND NUCLEOSIDE ANALOGUE-CONTAINING DOUBLE-STRANDED OLIGONUCLEOTIDE AND USE THEREOF” (RIGERNA THERAPEUTICS (BEIJING) CO., LTD., priority 2023, published 2026).

Key:
target gene SOD1 [1] = assay: Test Example 7: inhibitory activity of lipid conjugated siRNA sequences on SOD1 in mouse adipose and muscle tissues (tail vein injection); format: in vivo, C57BL/6j mice; details: for inhibitory action on liver and kidney tissues: liver and kidney (non-target tissues), D28 and D49; for inhibitory action on liver and kidney tissues / inhibitory activity compared with the NM200 conjugated reference sequence RZ899076 / inhibitory activity compared with Uhd conjugated reference sequence RZ899093 and NM200 conjugated reference sequence RZ899076 / inhibitory activity in mouse skeletal muscle tissues: tail vein 5 mg/kg; for D 14 % Mean value of inhibition rate / D 28 % Mean value of inhibition rate / D 49 % Mean value of inhibition rate / Kidney D 14 % Mean value of inhibition rate / Kidney D 28 % Mean value of inhibition rate / Kidney D 49 % Mean value of inhibition rate / Liver D 14 % Mean value of inhibition rate / Liver D 28 % Mean value of inhibition rate / Liver D 49 % Mean value of inhibition rate: tail vein injection 5 mg/kg; for D 14 % Mean value of inhibition rate / inhibitory activity compared with the NM200 conjugated reference sequence RZ899076 / Kidney D 14 % Mean value of inhibition rate / Liver D 14 % Mean value of inhibition rate: D14; for D 28 % Mean value of inhibition rate / Kidney D 28 % Mean value of inhibition rate / Liver D 28 % Mean value of inhibition rate: D28; for D 49 % Mean value of inhibition rate / Kidney D 49 % Mean value of inhibition rate / Liver D 49 % Mean value of inhibition rate: D49; for inhibitory activity compared with the NM200 conjugated reference sequence RZ899076: mouse adipose tissues; for inhibitory activity compared with Uhd conjugated reference sequence RZ899093 and NM200 conjugated reference sequence RZ899076: D14, D28 and D49; for Kidney D 14 % Mean value of inhibition rate / Kidney D 28 % Mean value of inhibition rate / Kidney D 49 % Mean value of inhibition rate: mouse kidney; for Liver D 14 % Mean value of inhibition rate / Liver D 28 % Mean value of inhibition rate / Liver D 49 % Mean value of inhibition rate: mouse liver
Protocol: (§1) RNA extraction: the above tissue samples were taken out from the RNAlater, and smashed for 60 s in Tissuelyser type II full-automatic tissue homogenizer, and total RNAs of various tissue samples were extracted using the full-automatic nucleic acid extraction instrument and the nucleic acid extraction kit from Zhejiang Hanwei Science and Technology Co. Ltd. according to methods described in instructions.
(§2) Reverse transcription reaction: 1 μg of the extracted total RNAs of the tissue samples were taken, and configured into 20 μL of reverse transcription system according to a method described in kit instructions by using a reverse transcription kit (Reverse Transcription System, A3500) from Promega Corporation and selecting Oligo (dT)15 reverse transcription primers, and the reverse transcription reaction was completed. After the reaction was ended, 80 μL of RNase-Free water was added into the reverse transcription system to provide cDNA solution for Real-time PCR detection.
(§3) Real-time PCR detection: 20 μL of Real-time PCR reaction system per PCR detection well was configured according to a method described in kit instructions using SYBR™ Select Master Mix (Catalog number: 4472908) reagent from ABI company. Each detection system contained 5 μL of cDNA template obtained from the above reverse transcription reaction, 10 μL of SYBR™ Select Master Mix, 0.5 μL of 10 μM upstream primers, 0.5 μL of 10 μM downstream primers, and 4 μL of RNase-Free H2O. The configured reaction system was subjected to Real-time PCR amplification on ABI StepOnePlus PCR instrument by a three-step method, wherein an amplification procedure was pre-denaturation at 95° C. for 10 min, then denaturation at 95° C. for 30 s, annealing at 60° C. for 30 s, and extension at 72° C. for 30 s; and processes of denaturation, annealing, and extension were repeated for 40 cycles. Gene expression differences were calculated by the ΔΔCt method after completion of the procedure.
(§4) In the real-time fluorescence quantitative PCR method, relative quantitative calculation of remaining expression level and inhibition rate of gene mRNA of interest in various test groups was performed by the ΔΔCt method, and the calculation method is as follows:
The present test example evaluated, by an evaluation method for inhibitory activity on a target gene in mice, the inhibitory activity of siRNA sequence RZ899090 with the sense strand with the NM073 conjugation at Position 4, siRNA sequence RZ899091 with the sense strand with the NM074 conjugation at Position 4, siRNA sequence RZ899078 with the sense strand with the NM202 conjugation at Position 6 and siRNA reference sequence RZ899093 with the sense strand with the Uhd conjugation at Position 4, and siRNA reference sequence RZ899076 with the sense strand with the NM200 conjugation at Position 4 on the target gene SOD1 of interest in mice. The above conjugation vectors were different in that NM073 was C18 aliphatic chain, NM074 was C20 aliphatic chain, and NM0202 and NM0200 were C22 aliphatic chains.
(§5) 6-8 Week-old C57BL/6j mice were randomly grouped by body weight, 15 per group, 6 groups in total. Mice in each group were dosed with the above siRNA conjugates by tail vein injection, with an administration dose of 5 mg/kg per mouse, and an administration volume of 150 μL. PBS control group was administered with the same volume of siRNA conjugate-free PBS solution. The day of administration was recorded as D0, and 5 mice in each group were sacrificed on D14, D28 and D49 after administration. Tissues such as paragonadal fat, left hind leg quadriceps muscle, heart, liver, and kidney were respectively taken and stored in the RNAlater. RNA extraction, reverse transcription, and real-time fluorescence quantitative detection were performed on various tissues according to the above method, and gene expression differences were calculated by the above ΔΔCt method.

target gene SOD1 [2] = assay: Test Example 9: inhibitory activity of lipid conjugated siRNA sequences on SOD1 in mouse muscle tissues; format: in vivo, C57BL/6j mice; details: D14; for Diaphragm % Mean value of inhibition rate / Heart % Mean value of inhibition rate / Left quadriceps muscle % Mean value of inhibition rate: tail vein injection 5 mg/kg; for inhibitory activity compared with the NM200 conjugated reference sequence RZ899076: heart tissues; for inhibitory activity compared with the NM200 conjugated reference sequence RZ899076 / inhibitory action on the left quadriceps muscle and diaphragm: tail vein 5 mg/kg; for Left quadriceps muscle % Mean value of inhibition rate: left hind leg quadriceps muscle
Protocol: as §1, §2, §3, §4
The present test example evaluated, by an evaluation method for inhibitory activity on a target gene in mice, the inhibitory activity of siRNA sequence RZ899090 with the sense strand with the NM073 conjugation at Position 4, siRNA sequence RZ899091 with the sense strand with the NM074 conjugation at Position 4, siRNA sequence RZ899078 with the sense strand with the NM202 conjugation at Position 6 and siRNA reference sequence RZ899093 with the sense strand with the Uhd conjugation at Position 4, siRNA reference sequence RZ899076 with the sense strand with the NM200 conjugation at Position 4 on the target gene SOD1 of interest in muscle tissues in different parts of mice.
as §5, with “weight, 5” for “weight, 15”, “on D14” for “on D14, D28 and D49”, “as” for “as paragonadal fat,”, “muscle, diaphragm,” for “muscle, heart, liver,”, “and heart tissues” for “and kidney”

[3] = mouse adipose tissues (paragonadal fat)
[4] = mouse skeletal muscle tissues (left hind leg quadriceps muscle)

RZ899078: siRNA sequence with the sense strand with the NM202 (C22) conjugation at Position 6; SEQ ID NO: 20 / 24 (sense UUUUANUCCUCACUCUAAA; antisense UUUAGAGUGAGGAUUAAAAUG; NM202 (C22) conjugate at sense position 6; modified_base 1..2 OTHER; 2'-methoxy and 5'-thiophosphate modified nucleotides; modified_base 3..5 OTHER; 2'-methoxy modified nucleotides; modified_base 6 OTHER; n is the synthetic nucleotide analog NM202 as described in the disclosure.; modified_base 7..10 OTHER; 2'-fluoro modified nucleotides; modified_base 11..19 OTHER; modified_base 1 OTHER; 2'-methoxy and 5'-thiovinylphosphonate modified nucleotide; modified_base 2 OTHER; 2'-fluoro and 5'-thiophosphate modified nucleotide; modified_base 6 OTHER;)
inhibitory action on liver and kidney tissues (target gene SOD1 [1]): no inhibitory action | D 14 % Mean value of inhibition rate (target gene SOD1 [1]; [3]): 91.53% | D 28 % Mean value of inhibition rate (target gene SOD1 [1]; [3]): 75.82% | D 49 % Mean value of inhibition rate (target gene SOD1 [1]; [3]): 65.16% | inhibitory activity compared with the NM200 conjugated reference sequence RZ899076 (target gene SOD1 [1]): on par | inhibitory activity compared with Uhd conjugated reference sequence RZ899093 and NM200 conjugated reference sequence RZ899076 (target gene SOD1 [1]; mouse heart tissues): superior inhibitory activity | D 14 % Mean value of inhibition rate (target gene SOD1 [1]; mouse heart tissues): 83.53% | D 28 % Mean value of inhibition rate (target gene SOD1 [1]; mouse heart tissues): 79.52% | D 49 % Mean value of inhibition rate (target gene SOD1 [1]; mouse heart tissues): 63.42% | Kidney D 14 % Mean value of inhibition rate (target gene SOD1 [1]): −7.92% | Kidney D 28 % Mean value of inhibition rate (target gene SOD1 [1]): 1.46% | Kidney D 49 % Mean value of inhibition rate (target gene SOD1 [1]): 2.03% | Liver D 14 % Mean value of inhibition rate (target gene SOD1 [1]): 20.63% | Liver D 28 % Mean value of inhibition rate (target gene SOD1 [1]): 15.46% | Liver D 49 % Mean value of inhibition rate (target gene SOD1 [1]): −11.54% | D 14 % Mean value of inhibition rate (target gene SOD1 [1]; [4]): 71.63% | D 28 % Mean value of inhibition rate (target gene SOD1 [1]; [4]): 69.78% | inhibitory activity in mouse skeletal muscle tissues (target gene SOD1 [1]): highest inhibitory activity in muscles | Diaphragm % Mean value of inhibition rate (target gene SOD1 [2]): 47.67% | inhibitory activity compared with the NM200 conjugated reference sequence RZ899076 (target gene SOD1 [2]): superior inhibitory activity | Heart % Mean value of inhibition rate (target gene SOD1 [2]): 68.69% | Left quadriceps muscle % Mean value of inhibition rate (target gene SOD1 [2]): 32.10% | inhibitory action on the left quadriceps muscle and diaphragm (target gene SOD1 [2]): certain inhibitory action

RZ899090: siRNA sequence with the sense strand with the NM073 (C18) conjugation at Position 4; SEQ ID NO: 15 / 23 (sense UUUNAAUCCUCACUCUAAA; antisense UUUAGAGUGAGGAUUAAAAUG; NM073 (C18) conjugate at sense position 4; modified_base 1..2 OTHER; 2'-methoxy and 5'-thiophosphate modified nucleotides; modified_base 3 OTHER; 2'-methoxy modified nucleotide; modified_base 4 OTHER; n is the nucleotide analog NM073 as described in the disclosure.; modified_base 5..6 OTHER; 2'-methoxy modified nucleotides; modified_base 7..10 OTHER; 2'-fluoro modified nucleotides; modified_base 11..19 OTHER; modified_base 1 OTHER; 2'-methoxy and 5'-thiovinylphosphonate modified nucleotide; modified_base 2 OTHER; 2'-fluoro and 5'-thiophosphate modified nucleotide; modified_base 3..5 OTHER; …)
inhibitory action on liver and kidney tissues (target gene SOD1 [1]): no inhibitory action | D 14 % Mean value of inhibition rate (target gene SOD1 [1]; [3]): 92.09% | D 28 % Mean value of inhibition rate (target gene SOD1 [1]; [3]): 85.11% | D 49 % Mean value of inhibition rate (target gene SOD1 [1]; [3]): 61.34% | inhibitory activity compared with the NM200 conjugated reference sequence RZ899076 (target gene SOD1 [1]): on par | inhibitory activity compared with Uhd conjugated reference sequence RZ899093 and NM200 conjugated reference sequence RZ899076 (target gene SOD1 [1]; mouse heart tissues): superior inhibitory activity | D 14 % Mean value of inhibition rate (target gene SOD1 [1]; mouse heart tissues): 79.58% | D 28 % Mean value of inhibition rate (target gene SOD1 [1]; mouse heart tissues): 82.12% | D 49 % Mean value of inhibition rate (target gene SOD1 [1]; mouse heart tissues): 65.43% | Kidney D 14 % Mean value of inhibition rate (target gene SOD1 [1]): 31.38% | Kidney D 28 % Mean value of inhibition rate (target gene SOD1 [1]): 15.90% | Kidney D 49 % Mean value of inhibition rate (target gene SOD1 [1]): 7.12% | Liver D 14 % Mean value of inhibition rate (target gene SOD1 [1]): 36.99% | Liver D 28 % Mean value of inhibition rate (target gene SOD1 [1]): 7.32% | Liver D 49 % Mean value of inhibition rate (target gene SOD1 [1]): −12.46% | D 14 % Mean value of inhibition rate (target gene SOD1 [1]; [4]): 57.16% | D 28 % Mean value of inhibition rate (target gene SOD1 [1]; [4]): 51.23% | D 49 % Mean value of inhibition rate (target gene SOD1 [1]; [4]): 42.93% | inhibitory activity in mouse skeletal muscle tissues (target gene SOD1 [1]): certain inhibitory activity | Diaphragm % Mean value of inhibition rate (target gene SOD1 [2]): 43.77% | inhibitory activity compared with the NM200 conjugated reference sequence RZ899076 (target gene SOD1 [2]): superior inhibitory activity | Heart % Mean value of inhibition rate (target gene SOD1 [2]): 67.88% | Left quadriceps muscle % Mean value of inhibition rate (target gene SOD1 [2]): 33.16% | inhibitory action on the left quadriceps muscle and diaphragm (target gene SOD1 [2]): certain inhibitory action
